According to ChEMBL document CHEMBL1142906, “Structure-activity relationships of novel piperazines as antagonists for the melanocortin-4 receptor” (Bioorg Med Chem, 2007):

Assays:
Melanocortin receptor 4 = Melanocortin receptor 4 (Homo sapiens, UniProt P32245); assay: Displacement of [125I]Nle4-D-Phe7-alpha-MSH from human MC4 receptor expressed in COS1 cells; type: cell-based, COS-1
D(2) dopamine receptor = D(2) dopamine receptor (Rattus norvegicus, UniProt P61169); assay: Displacement of [3H]raclopride from dopamine D2 receptor in rat striatal membranes; type: cell membranes, Membrane
[1] = target: Norepinephrine transporter (Rattus norvegicus, UniProt Q9WTR4); assay: Displacement of [3H]nisoxetine from NET in rat cortical membranes; type: cell membranes, Membrane
Mu-type opioid receptor = Mu-type opioid receptor (Rattus norvegicus, UniProt P33535); assay: Displacement of [3H]DAMGO from mu opiate receptor in rat brain membranes; type: cell membranes
[2] = target: Sodium-dependent serotonin transporter (Rattus norvegicus, UniProt P31652); assay: Displacement of [3H][…] from SET in rat cortical membranes; type: cell membranes, Membrane
[3] = target: Delta-type opioid receptor (Rattus norvegicus, UniProt P33533); assay: Displacement of [3H]DPDPE from delta opiate receptor in rat brain membranes; type: cell membranes
[4] = target: T1, Adrenergic receptor alpha-1 (Rattus norvegicus, UniProt P15823+P23944+P43140); assay: Displacement of [3H]prazosin from adrenergic alpha-1 receptor in rat cortical membranes; type: cell membranes, Membrane
T1 sequence (P15823 whole entry): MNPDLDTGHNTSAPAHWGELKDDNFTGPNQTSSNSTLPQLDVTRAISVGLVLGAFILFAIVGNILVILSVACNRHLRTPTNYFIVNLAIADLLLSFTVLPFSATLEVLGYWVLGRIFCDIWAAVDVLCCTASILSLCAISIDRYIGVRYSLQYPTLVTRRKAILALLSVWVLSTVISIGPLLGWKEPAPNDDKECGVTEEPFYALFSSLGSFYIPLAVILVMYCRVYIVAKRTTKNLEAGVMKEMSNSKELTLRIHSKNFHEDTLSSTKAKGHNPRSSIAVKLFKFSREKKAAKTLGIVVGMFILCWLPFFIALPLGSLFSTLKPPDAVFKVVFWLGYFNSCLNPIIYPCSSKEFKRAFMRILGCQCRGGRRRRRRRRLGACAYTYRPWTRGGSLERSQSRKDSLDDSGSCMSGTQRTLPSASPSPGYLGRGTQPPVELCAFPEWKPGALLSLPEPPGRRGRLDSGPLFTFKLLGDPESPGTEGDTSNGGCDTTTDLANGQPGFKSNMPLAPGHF
T1 sequence (P23944 whole entry): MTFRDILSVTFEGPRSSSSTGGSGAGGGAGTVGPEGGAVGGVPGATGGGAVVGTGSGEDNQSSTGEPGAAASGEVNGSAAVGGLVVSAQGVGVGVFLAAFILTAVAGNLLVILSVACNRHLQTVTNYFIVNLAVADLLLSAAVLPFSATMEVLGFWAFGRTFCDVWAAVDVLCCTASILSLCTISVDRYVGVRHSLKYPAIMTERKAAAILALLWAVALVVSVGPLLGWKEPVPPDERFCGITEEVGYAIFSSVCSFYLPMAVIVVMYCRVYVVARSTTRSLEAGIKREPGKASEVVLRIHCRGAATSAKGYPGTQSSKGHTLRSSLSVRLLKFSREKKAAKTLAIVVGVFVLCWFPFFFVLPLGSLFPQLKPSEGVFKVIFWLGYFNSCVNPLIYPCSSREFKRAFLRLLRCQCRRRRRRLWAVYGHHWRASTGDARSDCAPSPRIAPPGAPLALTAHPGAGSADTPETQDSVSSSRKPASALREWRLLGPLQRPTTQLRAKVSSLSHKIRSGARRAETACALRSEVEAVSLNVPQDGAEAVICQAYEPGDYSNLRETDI
T1 sequence (P43140 whole entry): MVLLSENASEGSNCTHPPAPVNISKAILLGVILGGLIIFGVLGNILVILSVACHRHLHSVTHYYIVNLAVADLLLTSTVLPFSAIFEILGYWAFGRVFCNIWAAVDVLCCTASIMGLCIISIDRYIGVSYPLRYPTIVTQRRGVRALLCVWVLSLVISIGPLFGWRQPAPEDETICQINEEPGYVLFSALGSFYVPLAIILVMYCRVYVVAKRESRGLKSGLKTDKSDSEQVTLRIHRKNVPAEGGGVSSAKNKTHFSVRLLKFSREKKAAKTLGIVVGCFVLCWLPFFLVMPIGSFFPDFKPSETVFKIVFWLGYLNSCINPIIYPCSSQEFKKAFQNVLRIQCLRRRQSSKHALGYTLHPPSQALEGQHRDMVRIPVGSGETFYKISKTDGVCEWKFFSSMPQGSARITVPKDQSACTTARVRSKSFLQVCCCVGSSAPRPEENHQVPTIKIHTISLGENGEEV

Histamine H1 receptor = Histamine H1 receptor (Rattus norvegicus, UniProt P31390); assay: Displacement of [3H]pyrilamine from histamine H1 receptor in rat brain membranes; type: cell membranes
Chain of Histamine H1 receptor (P31390 whole entry): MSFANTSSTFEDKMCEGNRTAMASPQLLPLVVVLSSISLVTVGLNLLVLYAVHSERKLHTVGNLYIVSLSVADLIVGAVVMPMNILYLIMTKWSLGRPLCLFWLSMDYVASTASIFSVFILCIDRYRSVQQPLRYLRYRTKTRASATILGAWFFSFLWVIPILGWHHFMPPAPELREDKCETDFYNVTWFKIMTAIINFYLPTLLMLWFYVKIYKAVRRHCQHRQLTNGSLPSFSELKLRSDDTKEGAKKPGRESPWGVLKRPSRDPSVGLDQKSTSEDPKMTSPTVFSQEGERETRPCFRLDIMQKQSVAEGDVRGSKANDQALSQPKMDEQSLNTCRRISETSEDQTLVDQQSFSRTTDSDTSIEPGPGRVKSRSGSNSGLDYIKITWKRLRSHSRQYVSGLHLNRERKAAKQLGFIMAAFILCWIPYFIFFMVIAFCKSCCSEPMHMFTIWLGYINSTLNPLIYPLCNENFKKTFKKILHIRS

Chain of Delta-type opioid receptor (P33533 whole entry): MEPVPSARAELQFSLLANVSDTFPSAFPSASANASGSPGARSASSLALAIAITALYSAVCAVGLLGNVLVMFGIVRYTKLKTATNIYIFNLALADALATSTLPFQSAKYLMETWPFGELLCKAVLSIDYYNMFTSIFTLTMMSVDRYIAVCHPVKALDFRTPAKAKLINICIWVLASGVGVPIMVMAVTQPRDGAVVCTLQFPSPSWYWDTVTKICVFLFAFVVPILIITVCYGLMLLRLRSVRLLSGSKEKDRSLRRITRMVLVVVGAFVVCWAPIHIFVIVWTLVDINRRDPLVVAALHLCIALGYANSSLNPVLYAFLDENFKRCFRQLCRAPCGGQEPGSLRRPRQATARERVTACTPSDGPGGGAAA
Chain of Sodium-dependent serotonin transporter (P31652 whole entry): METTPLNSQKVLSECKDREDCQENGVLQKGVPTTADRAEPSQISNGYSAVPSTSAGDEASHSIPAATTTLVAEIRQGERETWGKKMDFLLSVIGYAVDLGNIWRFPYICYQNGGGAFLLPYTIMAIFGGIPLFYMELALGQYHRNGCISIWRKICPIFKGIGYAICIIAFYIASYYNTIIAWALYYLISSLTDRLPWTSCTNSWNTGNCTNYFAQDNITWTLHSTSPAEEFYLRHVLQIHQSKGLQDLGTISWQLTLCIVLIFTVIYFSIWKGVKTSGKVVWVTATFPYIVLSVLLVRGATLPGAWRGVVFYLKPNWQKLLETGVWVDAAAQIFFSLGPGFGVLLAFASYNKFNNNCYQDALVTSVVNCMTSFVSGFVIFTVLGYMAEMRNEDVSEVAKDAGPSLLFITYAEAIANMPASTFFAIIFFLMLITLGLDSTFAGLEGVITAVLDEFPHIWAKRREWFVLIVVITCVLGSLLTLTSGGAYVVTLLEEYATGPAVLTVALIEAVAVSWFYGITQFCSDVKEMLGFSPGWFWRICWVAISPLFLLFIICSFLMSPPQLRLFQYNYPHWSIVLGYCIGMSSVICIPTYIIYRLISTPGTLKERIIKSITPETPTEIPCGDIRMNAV
Chain of D(2) dopamine receptor (P61169 whole entry): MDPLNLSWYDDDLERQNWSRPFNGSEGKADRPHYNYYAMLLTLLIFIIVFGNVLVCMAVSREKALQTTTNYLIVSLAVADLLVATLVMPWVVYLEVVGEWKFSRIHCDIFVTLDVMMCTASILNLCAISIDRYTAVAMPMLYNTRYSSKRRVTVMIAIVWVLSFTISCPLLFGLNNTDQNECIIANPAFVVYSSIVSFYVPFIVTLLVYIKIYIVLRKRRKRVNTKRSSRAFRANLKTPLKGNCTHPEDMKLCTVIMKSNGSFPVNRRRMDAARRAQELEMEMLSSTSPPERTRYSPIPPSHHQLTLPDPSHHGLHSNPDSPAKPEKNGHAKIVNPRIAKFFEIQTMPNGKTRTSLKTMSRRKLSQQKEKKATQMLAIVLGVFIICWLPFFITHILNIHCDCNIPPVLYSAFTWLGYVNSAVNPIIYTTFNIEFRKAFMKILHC
Chain of Mu-type opioid receptor (P33535 whole entry): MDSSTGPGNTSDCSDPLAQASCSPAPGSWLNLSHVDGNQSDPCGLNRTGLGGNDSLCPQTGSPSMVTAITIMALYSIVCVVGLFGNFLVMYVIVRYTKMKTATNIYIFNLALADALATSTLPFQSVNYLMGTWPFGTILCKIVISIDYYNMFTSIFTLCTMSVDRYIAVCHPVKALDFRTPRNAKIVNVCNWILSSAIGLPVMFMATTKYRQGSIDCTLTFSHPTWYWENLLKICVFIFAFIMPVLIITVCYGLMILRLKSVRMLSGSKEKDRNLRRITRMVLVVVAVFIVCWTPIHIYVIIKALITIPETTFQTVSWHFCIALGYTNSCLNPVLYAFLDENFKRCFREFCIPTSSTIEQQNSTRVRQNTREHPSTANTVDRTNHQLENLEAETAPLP
Chain of Melanocortin receptor 4 (P32245 whole entry): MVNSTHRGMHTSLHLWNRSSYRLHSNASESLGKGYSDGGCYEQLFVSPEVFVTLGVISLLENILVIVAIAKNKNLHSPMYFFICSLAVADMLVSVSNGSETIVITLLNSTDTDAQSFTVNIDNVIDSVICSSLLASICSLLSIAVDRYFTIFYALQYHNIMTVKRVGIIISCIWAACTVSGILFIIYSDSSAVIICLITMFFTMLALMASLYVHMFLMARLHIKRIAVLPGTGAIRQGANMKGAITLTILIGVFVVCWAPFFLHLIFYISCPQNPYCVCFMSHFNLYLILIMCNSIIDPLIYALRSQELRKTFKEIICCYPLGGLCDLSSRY
Chain of Norepinephrine transporter (Q9WTR4 whole entry): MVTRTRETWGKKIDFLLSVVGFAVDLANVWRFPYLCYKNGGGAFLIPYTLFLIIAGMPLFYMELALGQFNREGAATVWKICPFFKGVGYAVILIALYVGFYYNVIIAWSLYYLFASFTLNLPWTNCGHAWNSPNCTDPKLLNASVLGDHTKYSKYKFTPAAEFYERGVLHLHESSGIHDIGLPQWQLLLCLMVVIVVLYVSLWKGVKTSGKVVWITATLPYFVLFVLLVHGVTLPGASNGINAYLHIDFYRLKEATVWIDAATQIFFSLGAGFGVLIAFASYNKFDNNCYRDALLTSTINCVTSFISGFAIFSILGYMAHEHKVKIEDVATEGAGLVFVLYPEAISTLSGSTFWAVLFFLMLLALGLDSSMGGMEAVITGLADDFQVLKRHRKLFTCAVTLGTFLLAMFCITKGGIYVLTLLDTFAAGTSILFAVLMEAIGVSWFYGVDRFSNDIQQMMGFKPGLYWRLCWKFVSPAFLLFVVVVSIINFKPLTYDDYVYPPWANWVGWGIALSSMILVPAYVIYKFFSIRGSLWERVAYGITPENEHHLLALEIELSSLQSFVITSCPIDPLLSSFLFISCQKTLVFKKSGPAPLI

Row | IC50 (Melanocortin receptor 4) | IC50 (D(2) dopamine receptor) | IC50 [1] | IC50 (Mu-type opioid receptor) | IC50 [2] | IC50 [3] | IC50 [4] | IC50 (Histamine H1 receptor) | SMILES
1 | 11.2 nM | 645 nM | 671 nM | > 10000 nM | 3130 nM | > 10000 nM | > 1000 nM | > 1000 nM | CC(C)N1CCN(C(CN2CCN(CCCc3ccccc3-c3ccccc3)CC2)c2ccc(F)cc2)CC1 (racemic)
2 | 27.1 nM | 721 nM | 369 nM | > 10000 nM | 1170 nM | > 10000 nM | > 1000 nM | > 1000 nM | CC(C)N1CCN(C(CN2CCN(CCCc3cc(F)ccc3-c3ccccc3)CC2)c2ccc(F)cc2)CC1 (racemic)
3 | 27.1 nM | > 1000 nM | 1770 nM | > 10000 nM | 1290 nM | > 10000 nM | > 1000 nM | > 1000 nM | CC(C)N1CCN(C(CN2CCN(CCCc3c(Cl)cccc3-c3ccccc3)CC2)c2ccc(F)cc2)CC1 (racemic)
4 | 11.7 nM | > 1000 nM | 206 nM | > 10000 nM | 1460 nM | > 10000 nM | > 1000 nM | > 1000 nM | CC(C)N1CCN(C(CN2CCN(CCCc3c(F)cccc3-c3ccccc3)CC2)c2ccc(F)cc2)CC1 (racemic)
5 | 24.3 nM | > 1000 nM | 2400 nM | > 10000 nM | 4960 nM | > 10000 nM | > 1000 nM | > 1000 nM | Cc1cccc(-c2ccccc2)c1CCCN1CCN(CC(c2ccc(F)cc2)N2CCN(C(C)C)CC2)CC1 (racemic)
6 | 33 nM | > 1000 nM | 1850 nM | > 10000 nM | 1370 nM | > 10000 nM | > 1000 nM | > 1000 nM | CC(C)N1CCN(C(CN2CCN(CCCc3ccc(F)cc3-c3ccccc3)CC2)c2ccc(F)cc2)CC1 (racemic)
7 | 23 nM | > 1000 nM | 2830 nM | > 10000 nM | 3400 nM | > 10000 nM | > 1000 nM | > 1000 nM | CC(C)N1CCN(C(CN2CCN(CCCc3cccc(F)c3-c3ccccc3)CC2)c2ccc(F)cc2)CC1 (racemic)
8 | 23.6 nM | > 1000 nM | 226 nM | > 10000 nM | 2110 nM | > 10000 nM | > 1000 nM | > 1000 nM | CC(C)N1CCN(C(CN2CCN(CCCc3ccccc3-c3cccc(F)c3)CC2)c2ccc(F)cc2)CC1 (racemic)
9 | 10.5 nM | 721 nM | 290 nM | > 10000 nM | 1340 nM | > 10000 nM | > 1000 nM | > 1000 nM | CC(C)N1CCN(C(CN2CCN(CCCc3ccccc3-c3ccc(F)cc3)CC2)c2ccc(F)cc2)CC1 (racemic)
